Data from ChEMBL document CHEMBL3400068, “Novel arylazopyrazole inhibitors of cyclin-dependent kinases” (Bioorg Med Chem, 2015).
Active and inactive are the calls of the source. The calls are words filed in the database; no cut-off is given here.

Key:
[1] = biological target: Cyclin-dependent kinase 2/cyclin E1 (Homo sapiens, UniProt P24941); experiment: Inhibition of CDK2/cyclin E (unknown origin) expressed in baculovirus infected Sf9 cells
K562 [2] = experiment: Cytotoxicity against human K562 cells after 72 hrs by calcein AM staining-based fluorescence assay; assay type: functional, cell-based; settings: K562, 72 h
MCF7 [3] = experiment: Cytotoxicity against human MCF7 cells after 72 hrs by calcein AM staining-based fluorescence assay; assay type: functional, cell-based; settings: MCF7, 72 h
RPMI-8226 [4] = experiment: Cytotoxicity against human RPMI8226 cells after 72 hrs by calcein AM staining-based fluorescence assay; assay type: functional, cell-based; settings: RPMI-8226, 72 h
[5] = biological target: Cyclin-dependent kinase 1/cyclin B1 (Homo sapiens, UniProt P06493); experiment: Inhibition of CDK1/cyclin B (unknown origin) expressed in baculovirus infected Sf9 cells
[6] = biological target: Cyclin-dependent kinase 4/cyclin D1 (Homo sapiens, UniProt P11802); experiment: Inhibition of CDK4/cyclin D1 (unknown origin) expressed in baculovirus infected Sf9 cells
[7] = biological target: Cyclin-dependent kinase 7/ cyclin H (Homo sapiens, UniProt P50613); experiment: Inhibition of CDK7/cyclin H (unknown origin) expressed in baculovirus infected Sf9 cells
CDK9/cyclin T1 = CDK9/cyclin T1 (Homo sapiens, UniProt P50750); experiment: Inhibition of CDK9/cyclin T1 (unknown origin) expressed in baculovirus infected Sf9 cells
MCF7 [8] = experiment: Cell cycle arrest in human MCF7 cells assessed as accumulation at G1 phase at 40 uM after 24 hrs by propidium iodide staining-based flow cytometry (reference value: 61.9%); assay type: functional
MCF7 [9] = experiment: Cell cycle arrest in human MCF7 cells assessed as accumulation at S phase at 40 uM after 24 hrs by propidium iodide staining-based flow cytometry (reference value: 28.3%); assay type: functional
MCF7 [10] = experiment: Cell cycle arrest in human MCF7 cells assessed as accumulation at G2/M phase at 40 uM after 24 hrs by propidium iodide staining-based flow cytometry (reference value: 9.8%); assay type: functional
MCF7 [11] = experiment: Cell cycle arrest in human MCF7 cells assessed as accumulation at subG1 phase at 40 uM after 24 hrs by propidium iodide staining-based flow cytometry (reference value: 0.6%); assay type: functional
MCF7 [12] = experiment: Cell cycle arrest in 24 hrs serum-deprived human asynchronous MCF7 cells assessed as inhibition of re-entry to G1 phase at 6.25 to 25 uM after 16 hrs by propidium iodide staining-based flow cytometry; assay type: functional
MCF7 [13] = experiment: Cell cycle arrest in 24 hrs thymidine-synchronized human MCF7 cells assessed as delay in cell cycle progression at 12.5 to 25 uM after 16 hrs by propidium iodide staining-based flow cytometry; assay type: functional
MCF7 [14] = experiment: Cell cycle arrest in 8 hrs thymidine-synchronized human MCF7 cells assessed as delay in cell cycle progression at 12.5 to 25 uM after 16 hrs by propidium iodide staining-based flow cytometry; assay type: functional
K562 [15] = experiment: Cell cycle arrest in human K562 cells assessed as accumulation at G1 phase at 100 uM after 24 hrs by propidium iodide staining-based flow cytometry (reference value: 26.3%); assay type: functional
K562 [16] = experiment: Cell cycle arrest in human K562 cells assessed as accumulation at S phase at 100 uM after 24 hrs by propidium iodide staining-based flow cytometry (reference value: 47.9%); assay type: functional
K562 [17] = experiment: Cell cycle arrest in human K562 cells assessed as accumulation at G2/M phase at 100 uM after 24 hrs by propidium iodide staining-based flow cytometry (reference value: 25.8%); assay type: functional
K562 [18] = experiment: Cell cycle arrest in human K562 cells assessed as accumulation at subG1 phase at 100 uM after 24 hrs by propidium iodide staining-based flow cytometry (reference value: 2.3%); assay type: functional
[19] = Cell cycle arrest in human RPMI8226 cells assessed as accumulation at G1 phase at 100 uM after 24 hrs by propidium iodide staining-based flow cytometry (reference value: 22.2%); assay type: functional; settings: RPMI-8226
[20] = Cell cycle arrest in human RPMI8226 cells assessed as accumulation at S phase at 100 uM after 24 hrs by propidium iodide staining-based flow cytometry (reference value: 53%); assay type: functional; settings: RPMI-8226
[21] = Cell cycle arrest in human RPMI8226 cells assessed as accumulation at G2/M phase at 100 uM after 24 hrs by propidium iodide staining-based flow cytometry (reference value: 24.8%); assay type: functional; settings: RPMI-8226
[22] = Cell cycle arrest in human RPMI8226 cells assessed as accumulation at subG1 phase at 100 uM after 24 hrs by propidium iodide staining-based flow cytometry (reference value: 9.8%); assay type: functional; settings: RPMI-8226
RPMI-8226 [23] = experiment: Induction of apoptosis in human RPMI8226 cells assessed as caspase 3 activation at 25 to 100 uM after 24 hrs by immunoblot analysis; assay type: functional, cell-based
RPMI-8226 [24] = experiment: Induction of apoptosis in human RPMI8226 cells assessed as caspase 7 activation at 25 to 100 uM after 24 hrs by immunoblot analysis; assay type: functional, cell-based
RPMI-8226 [25] = experiment: Induction of apoptosis in human RPMI8226 cells assessed as PARP-1 cleavage at 25 to 100 uM after 24 hrs by immunoblot analysis; assay type: functional, cell-based
RPMI-8226 [26] = experiment: Induction of apoptosis in human RPMI8226 cells assessed as increase in caspase 3 activity at 25 to 100 uM after 24 hrs by fluorescence assay; assay type: functional, cell-based
RPMI-8226 [27] = experiment: Induction of apoptosis in human RPMI8226 cells assessed as increase in caspase 9 activity at 25 to 100 uM after 24 hrs by fluorescence assay; assay type: functional, cell-based
MCF7 [28] = experiment: Cell cycle arrest in 24 hrs thymidine-synchronized human MCF7 cells assessed as inhibition of re-entry to cell cycle at 5 to 10 uM after 16 hrs by propidium iodide staining-based flow cytometry; assay type: functional
MCF7 [29] = experiment: Cell cycle arrest in 8 hrs thymidine-synchronized human MCF7 cells assessed as inhibition of re-entry to cell cycle at 5 to 10 uM after 16 hrs by propidium iodide staining-based flow cytometry; assay type: functional

Cyclin-dependent kinase 4/cyclin D1, sequence (P11802 whole entry): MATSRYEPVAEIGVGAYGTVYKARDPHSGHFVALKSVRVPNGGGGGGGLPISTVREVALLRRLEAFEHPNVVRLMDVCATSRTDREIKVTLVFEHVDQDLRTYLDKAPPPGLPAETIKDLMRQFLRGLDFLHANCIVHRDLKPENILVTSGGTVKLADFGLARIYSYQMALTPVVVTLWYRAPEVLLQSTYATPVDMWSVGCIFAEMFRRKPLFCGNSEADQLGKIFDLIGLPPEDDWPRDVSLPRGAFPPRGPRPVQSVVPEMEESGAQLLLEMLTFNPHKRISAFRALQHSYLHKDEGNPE
Cyclin-dependent kinase 4/cyclin D1, sequence (P24385 whole entry, further chain): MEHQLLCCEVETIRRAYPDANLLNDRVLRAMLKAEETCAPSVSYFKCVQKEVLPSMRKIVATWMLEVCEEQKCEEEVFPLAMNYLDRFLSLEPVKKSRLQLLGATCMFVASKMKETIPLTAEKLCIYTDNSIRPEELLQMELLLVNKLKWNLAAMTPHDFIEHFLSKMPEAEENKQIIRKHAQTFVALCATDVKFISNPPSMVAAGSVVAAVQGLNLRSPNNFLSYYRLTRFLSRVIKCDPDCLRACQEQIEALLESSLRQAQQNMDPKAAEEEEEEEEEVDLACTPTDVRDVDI
CDK9/cyclin T1, sequence (O60563 whole entry): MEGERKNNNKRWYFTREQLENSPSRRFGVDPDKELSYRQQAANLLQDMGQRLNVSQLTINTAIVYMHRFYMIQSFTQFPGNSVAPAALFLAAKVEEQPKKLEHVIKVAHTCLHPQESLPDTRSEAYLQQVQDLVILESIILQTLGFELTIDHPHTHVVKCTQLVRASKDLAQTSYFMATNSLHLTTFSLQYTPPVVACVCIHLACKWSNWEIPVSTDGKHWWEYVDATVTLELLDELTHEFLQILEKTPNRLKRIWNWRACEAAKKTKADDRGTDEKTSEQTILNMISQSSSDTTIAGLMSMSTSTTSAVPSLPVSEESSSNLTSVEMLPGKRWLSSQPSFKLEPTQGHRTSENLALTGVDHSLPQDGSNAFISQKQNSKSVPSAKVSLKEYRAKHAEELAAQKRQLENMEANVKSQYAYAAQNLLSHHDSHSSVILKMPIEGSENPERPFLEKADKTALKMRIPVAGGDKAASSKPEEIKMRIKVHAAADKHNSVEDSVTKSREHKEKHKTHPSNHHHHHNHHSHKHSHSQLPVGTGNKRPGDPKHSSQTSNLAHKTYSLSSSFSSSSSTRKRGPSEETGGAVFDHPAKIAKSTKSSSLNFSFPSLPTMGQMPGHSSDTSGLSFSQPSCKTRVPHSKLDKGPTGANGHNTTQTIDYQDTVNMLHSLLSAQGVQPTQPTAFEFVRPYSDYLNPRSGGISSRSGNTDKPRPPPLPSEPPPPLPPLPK
CDK9/cyclin T1, sequence (P50750 whole entry): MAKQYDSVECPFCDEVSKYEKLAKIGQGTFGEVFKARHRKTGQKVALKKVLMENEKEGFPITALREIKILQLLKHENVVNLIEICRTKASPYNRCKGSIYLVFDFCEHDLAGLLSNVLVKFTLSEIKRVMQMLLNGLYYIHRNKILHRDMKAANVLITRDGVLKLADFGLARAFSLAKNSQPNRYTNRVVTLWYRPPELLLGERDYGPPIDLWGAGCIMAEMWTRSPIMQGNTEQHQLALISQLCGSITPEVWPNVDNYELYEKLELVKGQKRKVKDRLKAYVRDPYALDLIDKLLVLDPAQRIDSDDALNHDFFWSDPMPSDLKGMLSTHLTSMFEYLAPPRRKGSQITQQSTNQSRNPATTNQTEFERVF
Cyclin-dependent kinase 7/ cyclin H, sequence (P51946 whole entry): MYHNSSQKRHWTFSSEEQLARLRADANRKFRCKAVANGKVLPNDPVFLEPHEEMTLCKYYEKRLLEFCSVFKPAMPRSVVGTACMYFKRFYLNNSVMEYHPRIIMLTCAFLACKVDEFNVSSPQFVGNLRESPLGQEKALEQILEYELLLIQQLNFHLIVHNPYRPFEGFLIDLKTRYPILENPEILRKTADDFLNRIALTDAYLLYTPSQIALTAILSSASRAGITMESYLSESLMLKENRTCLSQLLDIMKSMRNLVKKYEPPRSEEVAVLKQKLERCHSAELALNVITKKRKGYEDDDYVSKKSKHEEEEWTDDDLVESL
Cyclin-dependent kinase 7/ cyclin H, sequence (P50613 whole entry): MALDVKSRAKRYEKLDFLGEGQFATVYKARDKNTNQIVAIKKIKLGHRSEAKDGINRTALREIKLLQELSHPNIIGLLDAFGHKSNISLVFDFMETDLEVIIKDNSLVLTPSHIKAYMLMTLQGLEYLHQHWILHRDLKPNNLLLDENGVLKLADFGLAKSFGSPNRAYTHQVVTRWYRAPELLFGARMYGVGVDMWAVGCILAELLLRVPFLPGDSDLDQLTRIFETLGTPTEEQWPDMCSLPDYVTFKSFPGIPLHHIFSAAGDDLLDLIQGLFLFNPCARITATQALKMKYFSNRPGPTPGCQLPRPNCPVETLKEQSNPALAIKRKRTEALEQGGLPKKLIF
Cyclin-dependent kinase 1/cyclin B1, sequence (P06493 whole entry): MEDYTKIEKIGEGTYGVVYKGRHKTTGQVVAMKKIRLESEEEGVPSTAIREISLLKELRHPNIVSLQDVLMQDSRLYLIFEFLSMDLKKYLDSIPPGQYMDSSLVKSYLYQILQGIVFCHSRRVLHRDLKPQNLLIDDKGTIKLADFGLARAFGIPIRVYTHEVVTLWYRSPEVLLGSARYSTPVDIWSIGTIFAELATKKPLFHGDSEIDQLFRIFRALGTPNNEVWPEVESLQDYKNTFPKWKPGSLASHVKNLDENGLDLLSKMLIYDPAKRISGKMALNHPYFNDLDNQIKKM
Cyclin-dependent kinase 1/cyclin B1, sequence (P14635 whole entry, further chain): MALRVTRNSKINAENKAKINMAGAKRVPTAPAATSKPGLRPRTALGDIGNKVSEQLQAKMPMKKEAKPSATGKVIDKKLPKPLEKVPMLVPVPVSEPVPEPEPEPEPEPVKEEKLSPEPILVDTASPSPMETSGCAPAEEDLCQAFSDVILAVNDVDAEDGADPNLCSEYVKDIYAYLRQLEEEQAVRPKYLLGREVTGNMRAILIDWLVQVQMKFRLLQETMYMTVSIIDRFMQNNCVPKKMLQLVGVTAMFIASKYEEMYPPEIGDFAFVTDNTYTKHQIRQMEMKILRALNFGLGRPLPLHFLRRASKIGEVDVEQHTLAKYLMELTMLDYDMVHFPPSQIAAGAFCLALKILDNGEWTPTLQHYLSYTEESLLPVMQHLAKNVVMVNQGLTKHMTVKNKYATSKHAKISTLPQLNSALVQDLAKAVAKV

Nc1nn(C(=O)c2ccc([N+](=O)[O-])cc2)c(N)c1/N=N/c1ccc(O)cc1
IC50 [1]: 15 µM
IC50 (K562 [2]): > 25 µM
IC50 (MCF7 [3]): > 25 µM
IC50 (RPMI-8226 [4]): > 100 µM

Nc1n[nH]c(N)c1/N=N/c1cccc[n+]1[O-]
IC50 [1]: > 100 µM
IC50 (K562 [2]): 62.6 µM
IC50 (MCF7 [3]): > 100 µM
IC50 (RPMI-8226 [4]): > 100 µM

CCOC(=O)n1nc(N)c(/N=N/c2ccc(O)cc2)c1N
IC50 [1]: > 50 µM
IC50 (K562 [2]): > 100 µM
IC50 (MCF7 [3]): > 100 µM
IC50 (RPMI-8226 [4]): > 100 µM

Nc1nn(C(=O)c2cccs2)c(N)c1/N=N/c1ccc(O)cc1
IC50 [1]: > 25 µM
IC50 (K562 [2]): > 25 µM
IC50 (MCF7 [3]): > 25 µM
IC50 (RPMI-8226 [4]): > 100 µM

Cn1nc(N)c(/N=N/c2ccncc2)c1N
IC50 [1]: 16.8 µM
IC50 (K562 [2]): 67.4 µM
IC50 (MCF7 [3]): 37.7 µM
IC50 (RPMI-8226 [4]): 50 µM
IC50 [5]: 11.3 µM
IC50 [6]: 0.42 µM
IC50 [7]: > 50 µM
IC50 (CDK9/cyclin T1): 1.35 µM
Activity (MCF7 [8]): 50.6%
Activity (MCF7 [9]): 15.8%
Activity (MCF7 [10]): 33.5%
Activity (MCF7 [11]): 1%
Activity (MCF7 [12]): Active
Activity (MCF7 [13]): Active
Activity (MCF7 [14]): Active
Activity (K562 [15]): 33.2%
Activity (K562 [16]): 31.4%
Activity (K562 [17]): 35.4%
Activity (K562 [18]): 6.5%
Activity [19]: 31.3%
Activity [20]: 39.8%
Activity [21]: 28.9%
Activity [22]: 57.7%
Activity (RPMI-8226 [23]): Active
Activity (RPMI-8226 [24]): Active
Activity (RPMI-8226 [25]): Active
Activity (RPMI-8226 [26]): Active
Activity (RPMI-8226 [27]): Active

Nc1n[nH]c(N)c1/N=N/c1ccc(O)cc1
IC50 (K562 [2]): 33 µM
IC50 (MCF7 [3]): 62 µM
IC50 (RPMI-8226 [4]): 24.9 µM

Nc1n[nH]c(N)c1/N=N/c1cc[n+]([O-])cc1
IC50 [1]: 17.4 µM
IC50 (K562 [2]): > 100 µM
IC50 (MCF7 [3]): > 100 µM
IC50 (RPMI-8226 [4]): > 100 µM

Nc1n[nH]c(N)c1/N=N/c1ccncc1
IC50 (K562 [2]): 17 µM
IC50 (MCF7 [3]): 4.3 µM
IC50 (RPMI-8226 [4]): 6.2 µM

CCn1cnc2c(Nc3cccc(Cl)c3)nc(N[C@@H]3CCCC[C@@H]3N)nc21
inhibition (MCF7 [28]): Active
inhibition (MCF7 [29]): Active

CC(=O)n1nc(N)c(/N=N/c2ccc(O)cc2)c1N
IC50 [1]: 42.8 µM
IC50 (K562 [2]): 64.9 µM
IC50 (MCF7 [3]): 44.9 µM
IC50 (RPMI-8226 [4]): > 100 µM

Cn1nc(N)c(/N=N/c2ccc(O)cc2)c1N
IC50 [1]: > 50 µM
IC50 (K562 [2]): 98.5 µM
IC50 (MCF7 [3]): > 100 µM
IC50 (RPMI-8226 [4]): > 100 µM
